Data published in patent publication US20210353579A1, “HIGH PENETRATION COMPOSITIONS AND USES THEREOF” (Techfields Pharma Co., Ltd., priority 2006, published 2021).
Structures can show the parent of a compound that is named as a salt.

What was measured:
Hypertension patients = experiment: Anti-hypertension effect of transdermal atenolol in patients; assay type: in vivo, human; conditions: 100 mg in 1 ml of pure water per day transdermally
Experimental: 20 Hypertension patents were divided to 2 groups. Group A is control group (n=10, 1 ml of water was administrated to the chest of patients once per day) and group B is atenolol treated group (n=10, 100 mg of atenolol HCl salt was administrated to the chest of patients once per day) (Table 32).

[1] = Plasma levels after transdermal administration to hairless mice; assay type: in vivo; conditions: mouse, in vivo
Experimental: Tested compounds (20% solution or suspension in 1 mL isopropanol) are administered transdermally to the skin of intact hairless mice. The plasma levels of the parent compounds are determined by HPLC.

mice [2] = experiment: Analgesic activity, D'Amour-Smith method (tail heat, pain threshold); assay type: in vivo; conditions: 200 mg/kg transdermally vs 200 mg/kg diflunisal orally
Experimental: After the tested compounds are administered (the dosages for each test compounds are specified in FIG. 3, prodrug compounds are administered orally and transdermally respectively in different groups, while parent compounds are administered orally) to a group of mice (six mice every group), the tails of mice are exposed to heat and the prolongation time of pain threshold is determined. […] The prodrug compounds show similar analgesic activities when the same dosages are administered orally or transdermally. (FIG. 3)

mice [3] = experiment: Analgesic activity, acetic acid writhing; assay type: in vivo; conditions: 30 min before acetic acid
Experimental: The prodrug compounds are administered either transdermally or orally. The parent compounds are administered orally. The number of writhing that occurred when mice are administered the acetic acid solution are counted, and the rate of inhibition based on the control group which was not pretreated with any test compounds is calculated. […] The A group is the control group.

rats = experiment: Antipyretic activity, E. coli suspension as pyrogen; assay type: in vivo; conditions: in °C (unit assumed)
Experimental: Rats are administered with sterilized E. coli suspension as a pyrogen. Each group of rats are administered with a prodrug compounds or parent compounds at a dosage specified below. The prodrug compounds are administered either orally or transdermally. The parent compounds are administered orally.

human skin tissue = conditions: pH 7.4
rat = conditions: rats
Experimental: The acute toxicity of the prodrug compounds and parent compounds are measured by LD50 of rat.

[4] = system: rats (SLAC/GK, type 2 diabetes); experiment: Blood glucose in type 2 diabetes rats, transdermal; assay type: in vivo, rat; conditions: diabetic rats (SLAC/GK); for Blood glucose, Average: average second to fifth week, no fasting, equal to 20 mg/kg of NSAIAs once per day for 5 weeks; for Blood glucose, Baseline: equal to 20 mg/kg of NSAIAs once per day
Source text: (§1) HPPs lower blood glucose level in rat models (SLAC/GK, type 2 diabetes, n=7). 50% acetone solution of diethylaminoethyl acetylsalicylate.acetylsalicylic acid salt (P-1, in acetone); 4-acetamidophenyl salicylyldimethylaminobutyrate.HCl (P-6), diethylaminoethyl 5-(2,4-difluorophenyl) acetylsalicylate.5-(2,4-difluorophenyl).acetylsalicylic acid salt (P-8), diethylaminoethyl salicylsalicylate.AcOH (P-9), diethylaminoethyl salicylate.AcOH (P-10), diethylaminoethyl 5-acetamido-acetylsalicylate (P-58), diethylaminoethyl acetylsalicylsalicylate.acetylsalicylsalicylic acid salt (P-59), diethylaminoethyl acetylsalicylsalicylate.acetylsalicylsalicylsalicylic acid salt (P-60) (equal to of 20 mg/kg of NSAIAs) are administered transdermally to the backs (about 1.5 cm^2) of rats (fur was shaved) once per day (at 8 am) for 5 weeks. The blood glucose levels are measured once every 3 days at 3 pm (no fasting) from the second week to the fifth week (Table 24). The blood lipid levels are measured at the end of the fifth week (Table 25).

[5] = system: rats (SLAC/GK, type 2 diabetes); experiment: Blood lipid in type 2 diabetes rats, transdermal; assay type: in vivo, rat; conditions: for Cholesterol (HDL), Baseline / Cholesterol (total), Baseline / Triglycerides, Baseline: equal to 20 mg/kg of NSAIAs; for Cholesterol (HDL), Average / Cholesterol (total), Average / Triglycerides, Average: end of the fifth week, equal to 20 mg/kg of NSAIAs once per day
Source text: as §1

[6] = system: rats (SLAC/GK, type 2 diabetes); experiment: Blood glucose in type 2 diabetes rats, oral with food; assay type: in vivo, rat; conditions: for Blood glucose, Diabetic rats, Average: average second to fifth week, no fasting, equal to 20 mg/kg of NSAIAs every day for 5 weeks; for Blood glucose, Diabetic rats, Baseline: equal to 20 mg/kg of NSAIAs
Source text: (§2) 20% acetone solution of diethylaminoethyl acetylsalicylate.acetylsalicylic acid salt (P-1, in acetone); 4-acetamidophenyl salicylyldimethylaminobutyrate.HCl (P-6), diethylaminoethyl 5-(2,4-difluorophenyl) acetylsalicylate.5-(2,4-difluorophenyl) acetylsalicylic acid salt (P-8), diethylaminoethyl salicylsalicylate.AcOH (P-9), diethylaminoethyl salicylate.AcOH (P-10), diethylaminoethyl 5-acetamido-acetylsalicylate (P-58), diethylaminoethyl acetylsalicylsalicylate. acetylsalicylsalicylic acid salt (P-59), diethylaminoethyl acetylsalicylsalicylate. acetylsalicylsalicylsalicylic acid salt (P-60) (equal to of 20 mg/kg of NSAIAs) were mixed with food and were orally administered to the rats (SLAC/GK, type 2 diabetes, n=7) with food every day for 5 weeks. The blood glucose levels were measured once every 3 days at 3 pm (no fasting) from the second week to the fifth week. The blood lipid levels were measured at the end of the fifth week.

[7] = system: rats (SLAC/GK, type 2 diabetes); experiment: Blood lipid in type 2 diabetes rats, oral with food; assay type: in vivo, rat; conditions: for Cholesterol (HDL), Baseline / Cholesterol (total), Baseline / Triglycerides, Baseline: equal to 20 mg/kg of NSAIAs; for Cholesterol (HDL), Average / Cholesterol (total), Average / Triglycerides, Average: end of the fifth week, equal to 20 mg/kg of NSAIAs every day
Source text: as §2

[8] = system: mice (SLAC:NOD-IDDM, type 1 diabetes); experiment: Blood glucose in type 1 diabetes mice, transdermal; assay type: in vivo, mouse; conditions: for Blood glucose, Average: average fourth to seventh week, no fasting, equal to 30 mg/kg of NSAIAs once per day for 7 weeks; for Blood glucose, Baseline: equal to 30 mg/kg of NSAIAs
Source text: The pro-drugs in this invention lower blood glucose levels in mouse models (SLAC:NOD-IDDM, type 1 diabetes, n=7). 50% acetone solution of diethylaminoethyl acetylsalicylate.acetylsalicylic acid salt (P-1, in acetone); 4-acetamidophenyl salicylyldimethylaminobutyrate.HCl (P-6), diethylaminoethyl 5-(2,4-difluorophenyl) acetylsalicylate.5-(2,4-difluorophenyl) acetylsalicylic acid salt (P-8), diethylaminoethyl salicylsalicylate.AcOH (P-9), diethylaminoethyl salicylate.AcOH (P-10), diethylaminoethyl 5-acetamido-acetylsalicylate (P-58), diethylaminoethyl acetylsalicylsalicylate. acetylsalicylsalicylic acid salt (P-59), diethylaminoethyl acetylsalicylsalicylate. acetylsalicylsalicylsalicylic acid salt (P-60) (equal to of 30 mg/kg of NSAIAs) were administered transdermally to the backs (about 1.5 cm^2) of mice (fur was shaved) once per day (at 8 am) for 7 weeks. The blood glucose levels were measured once every 3 days at 3 pm (no fasting) from the fourth week to the seventh week.

normal rats [9] = experiment: Blood glucose in normal rats, transdermal; assay type: in vivo, rat; conditions: for Blood glucose, Average: normal rats (second Average line of Table 24), average second to fifth week, equal to 20 mg/kg of NSAIAs once per day; for Blood glucose, Baseline: normal rats (second Baseline line of Table 24), equal to 20 mg/kg of NSAIAs
Source text: as §1, with “25). […]” for “25).”

normal rats [10] = experiment: Blood glucose in normal rats, oral with food; assay type: in vivo, rat; conditions: for Blood glucose, Normal rats, Average: average second to fifth week, equal to 20 mg/kg of NSAIAs every day; for Blood glucose, Normal rats, Baseline: equal to 20 mg/kg of NSAIAs
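Wherever LD50 of HPP is given: acute toxicity in rats expressed as LD50, determined for both prodrugs and their parent compounds.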

Compound | Peak plasma concentration of parent compound after prodrug compound [1] [mg/L] | t, time to peak plasma level of parent compound after prodrug compound [1] [min] | analgesic activity, prolongation time of pain threshold of mice tails (mice [2]) | % (rate of writhing inhibition) (mice [3]; 50 mg/kg transdermally) [%] | No. of Writhing (mice [3]; 50 mg/kg transdermally) | % (rate of writhing inhibition) (mice [3]; 100 mg/kg transdermally) [%] | No. of Writhing (mice [3]; 100 mg/kg transdermally) | body temperature, t = 0 min (rats; 100 mg/kg transdermally) | body temperature, t = 90 min (rats; 100 mg/kg transdermally) | body temperature, t = 180 min (rats; 100 mg/kg transdermally) | body temperature, t = 270 min (rats; 100 mg/kg transdermally) | body temperature, t = 0 min (rats; 150 mg/kg transdermally) | body temperature, t = 90 min (rats; 150 mg/kg transdermally) | body temperature, t = 180 min (rats; 150 mg/kg transdermally) | body temperature, t = 270 min (rats; 150 mg/kg transdermally) | In vitro penetration rate (apparent flux), prodrug compounds (human skin tissue) [μg/cm^2/h] | LD50 of HPP (rat) [mg/kg] | Blood glucose, Average [4] [mmol/L] | Blood glucose, Baseline [4] [mmol/L] | Cholesterol (HDL), Baseline [5] [mmol/L] | further results
CC(C)NCC(O)COc1ccc(CC(N)=O)cc1 (stereo not drawn) [atenolol HCl salt, reference compound] |  |  |  |  |  |  |  |  |  |  |  |  |  |  |  |  |  |  |  |  | blood pressure of hypertension patients (Hypertension patients): controlled
CC(=O)O.CCN(CC)CCOC(=O)c1cc(-c2ccc(F)cc2F)ccc1O [diethylaminoethyl 5-(2,4-difluorophenyl) salicylate.AcOH] | 50 | 30 | stronger analgesic activity | 62 | 13.2 | 71 | 10.2 | 37.22 ± 0.07 | 36.42 ± 0.06 | 36.40 ± 0.05 | 36.47 ± 0.08 | 37.26 ± 0.08 | 36.20 ± 0.05 | 36.30 ± 0.07 | 36.31 ± 0.08 | 100 | 1000 |  |  |  | 
CC(=O)O.CCN(CC)CCOC(=O)c1ccccc1O [diethylaminoethyl salicylate.AcOH] | 40 | 30 | stronger analgesic activity | 60 | 14.0 | 66 | 11.9 | 37.28 ± 0.06 | 36.85 ± 0.06 | 36.88 ± 0.08 | 36.86 ± 0.07 | 37.26 ± 0.05 | 36.55 ± 0.05 | 36.60 ± 0.07 | 36.65 ± 0.05 | 60 | 1600 | 8.2 ± 1 | 15.8 ± 3 | 1.6 ± 0.2 | Cholesterol (total), Baseline [5]: 7.1 ± 0.5 mmol/L; Triglycerides, Baseline [5]: 5.6 ± 0.6 mmol/L; Cholesterol (HDL), Average [5]: 1.5 ± 0.1 mmol/L; Cholesterol (total), Average [5]: 4.9 ± 0.4 mmol/L; Triglycerides, Average [5]: 2.5 ± 0.2 mmol/L; Blood glucose, Diabetic rats, Average [6]: 7.8 ± 1 mmol/L; Blood glucose, Diabetic rats, Baseline [6]: 15.6 ± 3 mmol/L; Cholesterol (HDL), Baseline [7]: 1.6 ± 0.2 mmol/L; Cholesterol (total), Baseline [7]: 7.6 ± 0.5 mmol/L; Triglycerides, Baseline [7]: 5.7 ± 0.6 mmol/L; Cholesterol (HDL), Average [7]: 1.7 ± 0.1 mmol/L; Cholesterol (total), Average [7]: 5.2 ± 0.5 mmol/L; Triglycerides, Average [7]: 2.6 ± 0.2 mmol/L; Blood glucose, Average [8]: 8.2 ± 1 mmol/L; Blood glucose, Baseline [8]: 25.8 ± 3 mmol/L; Blood glucose, Average (normal rats [9]): 6.9 ± 1 mmol/L; Blood glucose, Baseline (normal rats [9]): 6.8 ± 1 mmol/L; Blood glucose, Normal rats, Average (normal rats [10]): 6.9 ± 1 mmol/L; Blood glucose, Normal rats, Baseline (normal rats [10]): 6.7 ± 1 mmol/L
CC(=O)O.CCN(CC)CCOC(=O)c1ccccc1OC(=O)c1ccccc1O [diethylaminoethyl salicylsalicylate.AcOH] | 40 | 30 | stronger analgesic activity | 59 | 14.2 | 65 | 12.0 | 37.28 ± 0.06 | 36.75 ± 0.06 | 36.78 ± 0.08 | 36.80 ± 0.07 | 37.26 ± 0.05 | 36.45 ± 0.05 | 36.40 ± 0.07 | 36.50 ± 0.05 | 80 | 2000 | 8.4 ± 1 | 16.5 ± 4 | 1.3 ± 0.1 | Cholesterol (total), Baseline [5]: 7.7 ± 0.5 mmol/L; Triglycerides, Baseline [5]: 5.3 ± 0.5 mmol/L; Cholesterol (HDL), Average [5]: 1.4 ± 0.2 mmol/L; Cholesterol (total), Average [5]: 4.8 ± 0.4 mmol/L; Triglycerides, Average [5]: 2.4 ± 0.2 mmol/L; Blood glucose, Diabetic rats, Average [6]: 7.6 ± 1 mmol/L; Blood glucose, Diabetic rats, Baseline [6]: 16.5 ± 4 mmol/L; Cholesterol (HDL), Baseline [7]: 1.5 ± 0.1 mmol/L; Cholesterol (total), Baseline [7]: 7.9 ± 0.5 mmol/L; Triglycerides, Baseline [7]: 5.8 ± 0.6 mmol/L; Cholesterol (HDL), Average [7]: 1.4 ± 0.2 mmol/L; Cholesterol (total), Average [7]: 5.6 ± 0.4 mmol/L; Triglycerides, Average [7]: 2.7 ± 0.2 mmol/L; Blood glucose, Average [8]: 9.4 ± 1 mmol/L; Blood glucose, Baseline [8]: 26.5 ± 4 mmol/L; Blood glucose, Average (normal rats [9]): 6.7 ± 1 mmol/L; Blood glucose, Baseline (normal rats [9]): 6.5 ± 1 mmol/L; Blood glucose, Normal rats, Average (normal rats [10]): 6.6 ± 1 mmol/L; Blood glucose, Normal rats, Baseline (normal rats [10]): 6.3 ± 1 mmol/L
